{"source": "patent US20250206776A1", "about": "“ENZYME-INSTRUCTED SELF-ASSEMBLY OF PEPTIDES CONTAINING N-TERMINAL PHOSPHO-AROMATIC CAPPING MOTIF, AND USES THEREOF” (BRANDEIS UNIVERSITY, priority 2021, published 2025)", "key": {"Saos2 cells": {"system": "Saos2 cells", "experiment": "MTT assay, Saos2 cells", "assay_type": "cell-based, human", "settings": "Saos2, 2 h, presence or absence of DQB (20 μM)", "description": "(§1) Cell Culture: Saos2, SJSA1 and HepG2 cells were purchased from American Type Culture Collection (ATCC, USA). Saos2 cells were cultured in McCoy's 5A Medium (Gibco, Life Technologies) supplemented with 15% (v/v) fetal bovine serum (FBS) (Gibco, Life Technologies), 100 U/mL penicillin and 100 µg/mL streptomycin (Gibco, Life Technologies); SJSA1 cell were culture in RPMI1640 (ATCC, USA) Medium supplemented with 10% (v/v) FBS, 100 U/mL penicillin and 100 µg/mL streptomycin; HepG2 cells were cultured in Minimal Essential Medium (MEM) (Gibco, Life Technologies) supplemented with 10% (v/v) FBS, 100 U/mL penicillin and 100 µg/mL streptomycin. All the cells were maintained at 37° C. in a humidified atmosphere of 5% CO2.\n(§2) MTT Assay: Cells were seeded in 96-well plates at 1×10^4 cells/well for 24 hours to allow attachment. After removing the culture medium, fresh culture medium containing different concentration of the precursors were added. After 24/48/72 hours, 10 μL MTT (ACROS Organics) solution (5 mg/mL) was added to each well to incubate at 37° C. for 4 h. 100 μL of SDS-HCl solution was then added to stop the reduction reaction and dissolve the formazan. The absorbance of each well at 595 nm was measured by a DTX880 Multimode Detector. The results were calculated as cell viability percentage relative to untreated cells. […]"}, "SJSA1 cells": {"system": "SJSA1 cells", "experiment": "MTT assay, SJSA1 cells", "assay_type": "cell-based, human", "settings": "SJSA1, 2 h, presence or absence of DQB (20 μM)", "description": "as §1\nas §2, with “After 24/48/72 hours, 10 μL MTT (ACROS Organics) solution (5 mg/mL) was added to each well to incubate at 37° C. for 4 h.” left out, “cells. The MTT assay was performed in triplet (n=3) and the average value of the three measurements was taken.” for “cells.”"}, "[1]": {"settings": "hydrophobicity of the aromatic group; cited from earlier work"}, "[2]": {"experiment": "Solubility in PBS buffer / water", "assay_type": "physicochemical", "settings": "compared with 6"}}}
{"compound": "COC(=O)CC[C@@H](NC(=O)[C@@H](Cc1ccccc1)NC(=O)[C@@H](Cc1ccccc1)NC(=O)c1ccc(-c2ccc(OP(=O)(O)O)cc2)cc1)C(=O)OC", "note": "[9P]", "values": [{"measurement": "cytotoxicity compared to 10P (cell viability)", "setting": "Saos2 cells", "value": "higher cytotoxicity"}, {"measurement": "cytotoxicity compared to 10P (cell viability)", "setting": "SJSA1 cells", "value": "higher cytotoxicity"}]}
{"compound": "c1ccc(-c2ccccc2)cc1", "note": "[biphenyl]", "values": [{"measurement": "log P", "setting": "[1]", "value": 3.71}]}
{"compound": "O=C(N[C@H](Cc1ccccc1)C(=O)N[C@H](Cc1ccccc1)C(=O)O)c1ccc(O)cc1", "note": "[compound 2, B-ff]", "values": [{"measurement": "relative water solubility", "setting": "[2]", "value": "more water soluble than 6"}]}
{"compound": "O=C(N[C@H](Cc1ccccc1)C(=O)N[C@H](Cc1ccccc1)C(=O)O)c1ccc2cc(O)ccc2c1", "note": "[compound 4, NP-ff]", "values": [{"measurement": "relative water solubility", "setting": "[2]", "value": "more water soluble than 6"}]}
